We go through 1 compound from patent US8680110B2, “P2X4 receptor antagonist” (Nippon Chemiphar Co., Ltd., priority 2010, dated 2014).

Counter-ions that a name gives are not always drawn.

The target in this experiment is T1, human P2X4 receptors (Homo sapiens, UniProt Q99571).
T1 sequence (Q99571 1-388): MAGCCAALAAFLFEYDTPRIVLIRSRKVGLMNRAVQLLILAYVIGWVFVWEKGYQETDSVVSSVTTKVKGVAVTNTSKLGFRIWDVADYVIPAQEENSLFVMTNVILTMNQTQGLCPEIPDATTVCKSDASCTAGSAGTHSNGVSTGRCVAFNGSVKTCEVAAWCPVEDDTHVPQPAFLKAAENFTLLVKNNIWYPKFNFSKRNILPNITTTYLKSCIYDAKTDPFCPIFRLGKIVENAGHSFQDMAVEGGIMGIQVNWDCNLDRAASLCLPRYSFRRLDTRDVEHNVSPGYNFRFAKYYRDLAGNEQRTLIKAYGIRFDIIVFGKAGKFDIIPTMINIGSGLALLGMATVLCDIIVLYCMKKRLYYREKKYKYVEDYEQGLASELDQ
Nature of the experiment: P2X4 receptor antagonism, intracellular calcium assay (Fura-2 AM) in 1321N1 cells. It counts as cell-based. Conditions: 1321N1 cells stably expressing human P2X4 receptors; compound added 15 minutes before ATP; ATP-induced calcium influx; read-out: Inhibition activities (IC50 μM). As for the experimental part:
1321N1 cells stably expressing human P2X4 receptors were plated in 96-well assay plate and cultured 24 hours at 37° C. in an atmosphere of 5% CO2 for intracellular calcium assay. Fura-2 AM calcium fluorescent indicator was used for the intracellular calcium assay. Fura-2 AM was dissolved in an assay buffer, and the solution was loaded onto cells. The obtained plate was used for fluorescent assay. Test compounds were treated to cells 15 minutes before the addition of ATP, and the response to intracellular calcium influx induced by addition of ATP was monitored by a micro plate reader. The fluorescence ratio of excitations wavelengths of 340 nm and 380 nm was used as the index of intracellular calcium change. The inhibition activities of the test compounds were calculated by comparison with the absence of the test compound (control).
P2X4 receptor antagonism of the compound of the present invention was measured as described below. […]
Test compounds were treated to cells 15 minutes before the addition of ATP, and the response to intracellular calcium influx induced by addition of ATP was monitored by a micro plate reader. The fluorescence ratio of excitations wavelengths of 340 nm and 380 nm was used as the index of intracellular calcium change. The inhibition activities of the test compounds were calculated by comparison with the absence of the test compound (control).

Consider `O=c1nc(-c2cccc(-c3nnn[nH]3)c2)c2ccc3ccccc3c2[nH]1` [Example 2, 4-[3-(1H-Tetrazol-5-yl)phenyl]-1H-benzo[h]quinazolin-2-one sodium salt], for which the IC50 was 0.16 µM.
